Experimental data as given in article PMC6872757 (Heliyon, 2019).

Key:
Assay in all cases: TR-FRET nuclear receptor binding assay
PPARα = target: T1, PPARα (Homo sapiens, UniProt Q07869)
T1 sequence (Q07869 1-468): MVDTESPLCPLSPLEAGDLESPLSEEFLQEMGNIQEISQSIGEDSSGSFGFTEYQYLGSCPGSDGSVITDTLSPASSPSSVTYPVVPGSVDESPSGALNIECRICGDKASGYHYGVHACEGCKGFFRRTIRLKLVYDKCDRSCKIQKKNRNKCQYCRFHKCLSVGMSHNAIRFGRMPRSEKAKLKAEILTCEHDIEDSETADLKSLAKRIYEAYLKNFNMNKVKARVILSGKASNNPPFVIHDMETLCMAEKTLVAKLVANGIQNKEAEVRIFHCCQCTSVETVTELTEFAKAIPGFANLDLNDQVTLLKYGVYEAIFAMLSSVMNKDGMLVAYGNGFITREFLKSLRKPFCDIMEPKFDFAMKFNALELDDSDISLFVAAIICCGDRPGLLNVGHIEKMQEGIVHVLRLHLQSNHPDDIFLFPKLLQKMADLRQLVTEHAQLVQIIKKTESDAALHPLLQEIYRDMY

PPARδ(β) = target: T2, PPARδ(β) (Homo sapiens, UniProt Q03181)
T2 sequence (Q03181 1-441): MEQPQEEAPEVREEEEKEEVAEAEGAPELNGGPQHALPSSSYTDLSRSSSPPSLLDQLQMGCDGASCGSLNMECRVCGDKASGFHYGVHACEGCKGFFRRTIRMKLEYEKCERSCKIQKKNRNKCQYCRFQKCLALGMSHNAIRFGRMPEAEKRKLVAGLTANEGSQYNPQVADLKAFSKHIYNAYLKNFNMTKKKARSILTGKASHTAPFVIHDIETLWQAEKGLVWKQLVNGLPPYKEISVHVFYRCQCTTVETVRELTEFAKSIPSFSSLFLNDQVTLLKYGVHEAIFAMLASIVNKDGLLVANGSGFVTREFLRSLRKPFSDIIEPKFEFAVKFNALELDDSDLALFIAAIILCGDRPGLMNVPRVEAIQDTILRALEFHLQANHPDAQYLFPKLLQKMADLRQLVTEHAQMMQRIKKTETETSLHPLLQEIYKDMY

PPARγ = target: T3, PPARγ (Homo sapiens, UniProt P37231)
T3 sequence (P37231 1-505): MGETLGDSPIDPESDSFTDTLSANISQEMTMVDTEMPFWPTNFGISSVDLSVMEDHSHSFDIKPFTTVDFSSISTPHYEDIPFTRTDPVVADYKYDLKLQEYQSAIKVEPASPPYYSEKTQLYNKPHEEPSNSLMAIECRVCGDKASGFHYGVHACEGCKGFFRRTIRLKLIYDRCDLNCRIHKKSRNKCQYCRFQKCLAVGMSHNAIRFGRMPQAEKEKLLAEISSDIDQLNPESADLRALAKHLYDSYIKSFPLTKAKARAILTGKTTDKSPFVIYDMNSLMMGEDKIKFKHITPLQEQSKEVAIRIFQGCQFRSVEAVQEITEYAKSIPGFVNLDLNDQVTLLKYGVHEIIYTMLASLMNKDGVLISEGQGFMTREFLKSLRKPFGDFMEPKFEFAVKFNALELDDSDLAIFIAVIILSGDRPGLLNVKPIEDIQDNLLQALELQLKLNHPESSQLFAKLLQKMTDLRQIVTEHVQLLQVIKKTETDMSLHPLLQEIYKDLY

| EC50 nuclear receptor binding PPARα (PPARα) | EC50 nuclear receptor binding PPARδ(β) (PPARδ(β)) | EC50 nuclear receptor binding PPARγ (PPARγ) | Compound |
| --- | --- | --- | --- |
| No binding | No binding | No binding | CC1=C(/C=C/C(C)=C/C=C/C(C)=C/C(=O)O)C(C)(C)CCC1 [ATRA, all-trans retinoic acid] |
| No binding | No binding | No binding | CC1=C(/C=C/C(C)=C\C=C\C(C)=C\C(=O)O)C(C)(C)CCC1 [9-cis RA] |
